Where two headings read alike, the source gives them in different places.
Assays:
[1] = Standard murine pharmacokinetic model (plasma and brain AUC); type: in vivo; conditions: CL57 BL/6 mice, single IV injection 10 mg/kg, brain homogenate
Procedure: Several compounds disclosed herein were evaluated in a standard murine pharmacokinetic model. […] Three mice in each group were used for blood and brain collection at each time point. […] The brain of each animal was collected after the final blood collection. The whole tissue was harvested, excised and rinsed by saline, dried by filter paper, and then placed into one tube per tissue per animal. All samples were stored at −20° C. until bioanalysis. Compound concentrations in plasma and brain homogenate were determined using a high performance liquid chromatography/mass spectrometry (HPLC/MS/MS) method (Agilent 1100 series HPLC, AB Inc. API4000 triple-quadrupole with an ESI interface and Analyst 1.4 software). Results in the form of area under the time-versus-concentration curve (AUC) are given below in Table 10.

[2] = target: MLK3 (Homo sapiens (Human), UniProt Q16584); test: Radiometric filter plate MLK3 assay; type: biochemical; conditions: read-out: MK3 IC50
Chain of MLK3 (Q16584 whole entry): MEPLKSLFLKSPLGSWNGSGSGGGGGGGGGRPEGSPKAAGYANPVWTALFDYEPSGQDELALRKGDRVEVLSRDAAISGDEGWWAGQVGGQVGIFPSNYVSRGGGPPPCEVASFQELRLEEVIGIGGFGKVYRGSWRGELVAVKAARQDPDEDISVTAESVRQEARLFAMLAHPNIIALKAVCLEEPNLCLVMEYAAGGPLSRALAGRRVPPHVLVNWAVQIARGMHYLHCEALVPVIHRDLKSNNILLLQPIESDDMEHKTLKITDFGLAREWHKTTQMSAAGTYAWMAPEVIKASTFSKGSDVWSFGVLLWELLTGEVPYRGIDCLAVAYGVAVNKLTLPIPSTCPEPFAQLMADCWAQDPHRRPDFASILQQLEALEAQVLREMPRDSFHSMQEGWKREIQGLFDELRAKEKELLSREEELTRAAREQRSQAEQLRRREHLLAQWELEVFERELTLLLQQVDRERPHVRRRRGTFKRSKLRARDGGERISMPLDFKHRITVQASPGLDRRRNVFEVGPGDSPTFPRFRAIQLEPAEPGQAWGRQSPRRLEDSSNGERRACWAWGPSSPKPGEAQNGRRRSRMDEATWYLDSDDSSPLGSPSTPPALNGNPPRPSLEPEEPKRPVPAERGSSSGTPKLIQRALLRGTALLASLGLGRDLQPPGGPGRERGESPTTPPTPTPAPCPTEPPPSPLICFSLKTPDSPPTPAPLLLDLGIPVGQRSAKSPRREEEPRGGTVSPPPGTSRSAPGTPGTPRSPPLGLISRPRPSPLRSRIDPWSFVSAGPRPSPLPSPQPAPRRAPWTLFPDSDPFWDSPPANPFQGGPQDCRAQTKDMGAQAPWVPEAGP
Procedure: After a twenty minute incubation, the reactions were washed through filter plates and read on a scintillation counter. Results are shown in Table 9 below, in which +++ indicates ≤0.1 μM, ++ indicates >0.1 μM and ≤1 μM, and + indicates >1 μM.

[3] = 2 μM cold ATP (Km), 1 μM inactive MKK7b, twenty minute incubation

AUC Brain [1] | IC50 [2, 3] [nM] | IC50 [2] [nM] | SMILES
– | < 100 | – | c1cc2cc(-c3c[nH]c4ncc(-c5ccc(CN6CCOCC6)cc5)cc34)ccc2[nH]1 [Example 184, 4-(4-(3-(1H-indol-5-yl)-1H-pyrrolo[2,3-b]pyridin-5-yl)benzyl)morpholine]
– | – | 100 to 1000 | FC1(F)CCN(Cc2ccc(-c3cnc4[nH]cc(-c5ccc6[nH]ccc6c5)c4c3)cc2)CC1 [Example 185, 5-(4-((4,4-difluoropiperidin-1-yl)methyl)phenyl)-3-(1H-indol-5-yl)-1H-pyrrolo[2,3-b]pyridine]
– | < 100 | – | CC(=O)N1CCN(Cc2ccc(-c3cnc4[nH]cc(-c5ccc6[nH]ccc6c5)c4c3)cc2)CC1C (stereo not shown) [Example 188, 1-(4-(4-(3-(1H-indol-5-yl)-1H-pyrrolo[2,3-b]pyridin-5-yl)benzyl)-2-methylpiperazin-1-yl)ethanone]
– | < 100 | – | CC1CN(Cc2ccc(-c3cnc4[nH]cc(-c5ccc6[nH]ccc6c5)c4c3)cc2)CCN1C (stereo not shown) [Example 189, 5-(4-((3,4-dimethylpiperazin-1-yl)methyl)phenyl)-3-(1H-indol-5-yl)-1H-pyrrolo[2,3-b]pyridine]
– | – | 100 to 1000 | CC(C)(C)C(=O)N1CCN(Cc2ccc(-c3cnc4[nH]cc(-c5ccc6[nH]ccc6c5)c4c3)cc2)CC1 [Example 191]
– | < 100 | – | CC(C)(C)CC(=O)N1CCN(Cc2ccc(-c3cnc4[nH]cc(-c5ccc6[nH]ccc6c5)c4c3)cc2)CC1 [Example 192]
– | < 100 | – | CCOC(=O)N1CCN(Cc2ccc(-c3cnc4[nH]cc(-c5ccc6[nH]ccc6c5)c4c3)cc2)CC1 [Example 193]
– | < 100 | – | COC(=O)N1CCN(Cc2ccc(-c3cnc4[nH]cc(-c5ccc6[nH]ccc6c5)c4c3)cc2)CC1 [Example 194]
– | < 100 | – | CC(C)C(=O)N1CCN(Cc2ccc(-c3cnc4[nH]cc(-c5ccc6[nH]ccc6c5)c4c3)cc2)CC1 [Example 196]
– | < 100 | – | CCC(=O)N1CCN(Cc2ccc(-c3cnc4[nH]cc(-c5ccc6[nH]ccc6c5)c4c3)cc2)CC1 [Example 197]
– | < 100 | – | COCC(=O)N1CCN(Cc2ccc(-c3cnc4[nH]cc(-c5ccc6[nH]ccc6c5)c4c3)cc2)CC1 [Example 198]
– | < 100 | – | CCS(=O)(=O)N1CCN(Cc2ccc(-c3cnc4[nH]cc(-c5ccc6[nH]ccc6c5)c4c3)cc2)CC1 [Example 199]
– | < 100 | – | CS(=O)(=O)N1CCN(Cc2ccc(-c3cnc4[nH]cc(-c5ccc6[nH]ccc6c5)c4c3)cc2)CC1 [Example 200]
– | < 100 | – | O=C(CCO)N1CCN(Cc2ccc(-c3cnc4[nH]cc(-c5ccc6[nH]ccc6c5)c4c3)cc2)CC1 [Example 201]
– | < 100 | – | COCCC(=O)N1CCN(Cc2ccc(-c3cnc4[nH]cc(-c5ccc6[nH]ccc6c5)c4c3)cc2)CC1 [Example 202]
– | < 100 | – | O=C(CC1CC1)N1CCN(Cc2ccc(-c3cnc4[nH]cc(-c5ccc6[nH]ccc6c5)c4c3)cc2)CC1 [Example 203]
– | < 100 | – | CC(C)CC(=O)N1CCN(Cc2ccc(-c3cnc4[nH]cc(-c5ccc6[nH]ccc6c5)c4c3)cc2)CC1 [Example 204]
– | < 100 | – | O=C1CCC(C(=O)N2CCN(Cc3ccc(-c4cnc5[nH]cc(-c6ccc7[nH]ccc7c6)c5c4)cc3)CC2)N1 (stereo not shown) [Example 205]
– | – | 100 to 1000 | FC(F)(F)CN1CCN(Cc2ccc(-c3cnc4[nH]cc(-c5ccc6[nH]ccc6c5)c4c3)cc2)CC1 [Example 207, 3-(1H-indol-5-yl)-5-(4-((4-(2,2,2-trifluoroethyl)piperazin-1-yl)methyl)phenyl)-1H-pyrrolo[2,3-b]pyridine]
– | – | 100 to 1000 | CN1CCN(Cc2ccc(-c3cnc4[nH]c(=O)n(-c5ccc6[nH]ccc6c5)c4n3)cc2)CC1 [Example 212, 1-(1H-Indol-5-yl)-6-[4-(4-methyl-piperazin-1-ylmethyl)-phenyl]-1,3-dihydro-imidazo[4,5-b]pyrazin-2-one]

The remaining lines, values behind:

SMILES | AUC Brain [1] | IC50 [2, 3] [nM] | IC50 [2] [nM]
COc1cc(-c2cnc3[nH]cc(-c4ccc5[nH]ccc5c4)c3c2)cc(OC)c1OC [Example 1, 3-(1H-indol-5-yl)-5-(3,4,5-trimethoxyphenyl)-1H-pyrrolo[2,3-b]pyridine] | + (+ indicates ≥500) | – | –
Nc1ccc(-c2cnc3[nH]cc(-c4ccc5[nH]ccc5c4)c3c2)cn1 [Example 4, 5-(3-(1H-indol-5-yl)-1H-pyrrolo[2,3-b]pyridin-5-yl)pyridin-2-amine] | − (− indicates <500) | < 100 | –
Nc1ncc(-c2cnc3[nH]cc(-c4ccc5[nH]ccc5c4)c3c2)cn1 [Example 9, 5-(3-(1H-indol-5-yl)-1H-pyrrolo[2,3-b]pyridin-5-yl)pyrimidin-2-amine] | + (+ indicates ≥500) | < 100 | –
COc1cc(-c2cnc3[nH]cc(-c4cnc(N)nc4)c3c2)cc(OC)c1OC [Example 17, 5-(5-(3,4,5-trimethoxyphenyl)-1H-pyrrolo[2,3-b]pyridin-3-yl)pyrimidin-2-amine] | − (− indicates <500) | < 100 | –
COc1cc(-c2cnc3[nH]cc(-c4ccc(N)nc4)c3c2)cc(OC)c1OC [Example 18, 5-(5-(3,4,5-trimethoxyphenyl)-1H-pyrrolo[2,3-b]pyridin-3-yl)pyridin-2-amine] | − (− indicates <500) | < 100 | –
CN1CCN(Cc2ccc(-c3cnc4[nH]cc(-c5ccc6[nH]ccc6c5)c4c3)cc2)CC1 [Example 32, 3-(1H-indol-5-yl)-5-(4-((4-methylpiperazin-1-yl)methyl)phenyl)-1H-pyrrolo[2,3-b]pyridine] | + (+ indicates ≥500) | – | –
c1cc2cc(-c3c[nH]c4ncc(-c5ccc(CN6CCNCC6)cc5)cc34)ccc2[nH]1 [Example 168, 3-(1H-indol-5-yl)-5-(4-(piperazin-1-ylmethyl)phenyl)-1H-pyrrolo[2,3-b]pyridine] | – | – | 100 to 1000
CN1CCN(Cc2ccc(-c3cnc4[nH]cc(-c5ccc(F)cc5)c4c3)cc2)CC1 [Example 169] | – | > 1000 | –
CN1CCN(Cc2ccc(-c3cnc4[nH]cc(-c5ccc(C(F)(F)F)cc5)c4c3)cc2)CC1 [Example 170] | – | > 1000 | –
COc1ccc(-c2c[nH]c3ncc(-c4ccc(CN5CCN(C)CC5)cc4)cc23)cc1 [Example 171] | – | – | 100 to 1000
Cc1cc2cc(-c3c[nH]c4ncc(-c5ccc(CN6CCN(C)CC6)cc5)cc34)ccc2[nH]1 [Example 172] | – | – | 100 to 1000
CN1CCN(Cc2ccc(-c3cnc4[nH]cc(-c5ccc6[nH]ncc6c5)c4c3)cc2)CC1 [Example 173] | – | – | 100 to 1000
CN1CCN(Cc2ccc(-c3cnc4[nH]cc(-c5ccc6c(c5)CC(=O)N6)c4c3)cc2)CC1 [Example 174] | – | – | 100 to 1000
CN1CCN(Cc2ccc(-c3cnc4[nH]cc(-c5ccc6scnc6c5)c4c3)cc2)CC1 [Example 175] | – | – | 100 to 1000
Cc1c[nH]c2ccc(-c3c[nH]c4ncc(-c5ccc(CN6CCN(C)CC6)cc5)cc34)cc12 [Example 176] | – | – | 100 to 1000
CN1CCN(Cc2ccc(-c3cnc4[nH]cc(-c5ccc6nccc(O)c6c5)c4c3)cc2)CC1 [Example 177] | – | < 100 | –
CN1CCN(Cc2ccc(-c3cnc4[nH]cc(-c5ccc6c(O)ccnc6c5)c4c3)cc2)CC1 [Example 178] | – | – | 100 to 1000
CN1CCN(Cc2ccc(-c3cnc4[nH]cc(-c5ccc6ncccc6c5)c4c3)cc2)CC1 [Example 180] | – | < 100 | –
[2H]c1cc2cc(-c3c[nH]c4ncc(-c5ccc(CN6CCN(C)CC6)cc5)cc34)ccc2[nH]1 [Example 181] | – | – | < 100
